Data on 23 compounds can be found in patent US20240254119A1 (THIRD HARMONIC BIO, INC., priority 2022, published 2024).

In data set [1] the target is T1, wtKIT (Homo sapiens, UniProt P10721).
T1 construct: 1888289AM in the reaction mixtures
As to the kind of experiment: Caliper biochemical assay, wtKIT. As to conditions: Table 6, read-out: KIT Biochemical IC50 avg. The method, then:
Enzyme, substrate, and cofactors (ATP and Mn^2+) are combined in a well of a microtiter plate and incubated for 3 hours at 25° C. At the end of the incubation, the reaction is quenched by the addition of an EDTA-containing buffer. Substrate and product are separated electrophoretically using the microfluidic-based LabChip 3000 Drug Discovery System from Caliper Life Sciences* and quantitated by fluorescence intensity.
The substrate used in the CSF-1R and PDGFRα assay is FAM-[…]-CONH2 (FAM is carboxyfluorescein). Peptide should be >95% purity. The substrate for the KIT assay is FAM-[…]-NH2.
• 1. To a well of a 384-well plate add 5 μL of 2× enzyme buffer (or control) • 2. Add 100 nL of 100× compound. • 3. Add 5 μL of 2× substrate buffer. • 4. Incubate plate at 25° C. for 3 hours. • 5. Add 10 uL of […]. • 6. Read plate LabChip 3000 Drug Discovery System
• 3 hours at 25° C. where 100% Inhibitor: No enzyme.
• 100 mM HEPES, pH 7.5 0.1% BSA • 0.01% Triton X-100 • 1 mM DTT • 10 mM MnCl2 • 10 μM Sodium Orthovanadate • 10 μM Beta-Glycerophosphate • 400 μM ATP • 1% DMSO (from compound) • 1 μM FAM-[…]-CONH2 5.0 nM wtKIT Enzyme (1888289AM)* • *Specific activity may vary from lot to lot. Enzyme concentration may need to be adjusted to yield 10-20% conversion of substrate to product.

A short description of a further data set: Kinetic solubility assay. In kind it is physicochemical. As to conditions: kinetic solubility, 50 mM PB (pH 7.4), shaken 24 hours at RT. The method, then:
10 μL of 10 mM in DMSO of test article and control compounds was added into lower chambers of whatman miniuniprep vials, respectively. 490 μL of 50 mM PB (pH 7.4) was then added into lower chambers of the whatman miniuniprep vials, respectively. […] Miniuniprep vials were shaken for 24 hours at RT at the speed of 800 rpm, centrifuged 20 minutes (eg. 4000 rpm) and the filtrates were analyzed by UPLC-UV/HPLC-UV system to calculate the concentration with standard curve.
Filter Membrane: Miniuniprep (PTFE Filter Media with Polypropylene Housing) Cat. No. UN203NPUORG, GE Halthcare Whatman.

In data set [2] the target is T1, wtKIT. As to the kind of experiment: HTRF biochemical assay, wtKIT (phosphorylation of a peptide substrate). As to conditions: Table 4. A digest of the protocol: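 wtKIT (5.0 nM) phosphorylating 1 µM FAM-labelled peptide with 400 µM ATP and 10 mM MnCl2 in 100 mM HEPES pH 7.5, 1% DMSO, 3 h at 25 °C. EDTA quench; phosphopeptide detected with anti-phosphotyrosine antibody by HTRF. Enzyme titrated for 10-20% substrate conversion.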
(In TR-FRET formats the signal depends on donor and acceptor labels being close together.)

Data set [3] has as its target T2, BCRP (BCRP-MDCKII monolayer) (Homo sapiens, UniProt Q9UNQ0).
T2 construct: host or cells: MDCKII (canine kidney) cells
T2 sequence (Q9UNQ0 1-655): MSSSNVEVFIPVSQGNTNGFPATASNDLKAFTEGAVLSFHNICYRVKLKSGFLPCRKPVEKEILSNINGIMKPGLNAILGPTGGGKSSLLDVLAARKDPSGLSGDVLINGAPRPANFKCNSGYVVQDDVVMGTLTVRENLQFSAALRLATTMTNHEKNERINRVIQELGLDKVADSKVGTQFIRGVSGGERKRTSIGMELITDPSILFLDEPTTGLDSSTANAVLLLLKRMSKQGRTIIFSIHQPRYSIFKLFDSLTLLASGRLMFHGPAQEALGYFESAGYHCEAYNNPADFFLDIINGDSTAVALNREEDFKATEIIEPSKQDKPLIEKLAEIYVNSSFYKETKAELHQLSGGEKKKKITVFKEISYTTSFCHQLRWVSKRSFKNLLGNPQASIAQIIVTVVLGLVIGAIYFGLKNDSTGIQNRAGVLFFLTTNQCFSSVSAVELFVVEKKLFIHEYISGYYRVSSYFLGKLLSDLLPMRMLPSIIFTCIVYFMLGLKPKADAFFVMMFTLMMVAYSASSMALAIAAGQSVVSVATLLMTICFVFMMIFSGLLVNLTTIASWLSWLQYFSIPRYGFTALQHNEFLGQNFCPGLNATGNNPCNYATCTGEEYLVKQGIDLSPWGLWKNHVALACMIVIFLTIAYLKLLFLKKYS
Description: MDCKII-BCRP bidirectional transport assay. In kind it is in vitro ADME. As to the method: Exemplary compounds were tested for cell permeability in Caco-2, MDCKII-MDR1 and MDCKII-BCRP cell lines with efflux transporter engagement inferred from the efflux ratios determined. Procedures and results are described below. […] This feature of certain compounds is in part due to efflux transporter engagement. See, for instance, exemplary such compounds included in data tables below.
The reference compound Teriflunomide and test compounds are tested in the bidirectional assay. Test compound and reference compounds incubations were tested in duplicates.
The transport assay can be performed between days 12 to day 15 using ready to use PreadyPort™ BCRP-MDCKII monolayer in 96 well plate.
The medium was aspirated from the apical and basal compartments and 75 and 235 μL assay buffer was added to each of the 96 wells of apical and basal compartments of the PreadyPort™ plate.
The plates were pre-incubated for 15 min at 37° C. with 5% CO2 in humidified atmosphere. After preincubation the assay buffer was removed from the apical and basal inserts of the plate.
In apical to basolateral (A→B) transport, 75 μL of test or reference compound working solution to apical inserts and 235 μL of blank assay buffer were added to the corresponding basal compartments.
In basolateral to apical transport, 235 μL of test or reference compound working solution to the basal compartments and 75 μL of blank assay buffer solution were added to corresponding apical inserts.
The sandwich plate was incubated for 120 min in incubator at 5% CO2 and 37° C.
After incubation, 60 μL was transferred from receiver and donor compartments to collection plate.
For donor and C0 samples 20-fold dilution was accomplished by mixing 60 μL of collected sample with 1140 μL of transport buffer and from that solution aliquot 60 μL transfer Both receiver and donor samples were processed by adding […] of acetonitrile containing internal standard (60 μL of sample+240 μL of acetonitrile containing glyburide as internal standard, 125 ng/mL) and vortexing the samples. The compound concentration was measured in all samples using respective calibration standards by LC-MS/MS.
Calculate the Papp and recovery using the given formula:
[formula] [formula] • Where: dQ/dt=Permeability rate in μM/see • C0=Initial concentration in μM • A=Membrane surface area (0.33 cm^2) • V=Volume of receiver chamber • Cend, a=concentration in acceptor well at end of incubation • Cend, d=concentration in donor well at end of incubation • CHBSS=loading concentration measured in HBSS

T1 sequence (P10721 26-976): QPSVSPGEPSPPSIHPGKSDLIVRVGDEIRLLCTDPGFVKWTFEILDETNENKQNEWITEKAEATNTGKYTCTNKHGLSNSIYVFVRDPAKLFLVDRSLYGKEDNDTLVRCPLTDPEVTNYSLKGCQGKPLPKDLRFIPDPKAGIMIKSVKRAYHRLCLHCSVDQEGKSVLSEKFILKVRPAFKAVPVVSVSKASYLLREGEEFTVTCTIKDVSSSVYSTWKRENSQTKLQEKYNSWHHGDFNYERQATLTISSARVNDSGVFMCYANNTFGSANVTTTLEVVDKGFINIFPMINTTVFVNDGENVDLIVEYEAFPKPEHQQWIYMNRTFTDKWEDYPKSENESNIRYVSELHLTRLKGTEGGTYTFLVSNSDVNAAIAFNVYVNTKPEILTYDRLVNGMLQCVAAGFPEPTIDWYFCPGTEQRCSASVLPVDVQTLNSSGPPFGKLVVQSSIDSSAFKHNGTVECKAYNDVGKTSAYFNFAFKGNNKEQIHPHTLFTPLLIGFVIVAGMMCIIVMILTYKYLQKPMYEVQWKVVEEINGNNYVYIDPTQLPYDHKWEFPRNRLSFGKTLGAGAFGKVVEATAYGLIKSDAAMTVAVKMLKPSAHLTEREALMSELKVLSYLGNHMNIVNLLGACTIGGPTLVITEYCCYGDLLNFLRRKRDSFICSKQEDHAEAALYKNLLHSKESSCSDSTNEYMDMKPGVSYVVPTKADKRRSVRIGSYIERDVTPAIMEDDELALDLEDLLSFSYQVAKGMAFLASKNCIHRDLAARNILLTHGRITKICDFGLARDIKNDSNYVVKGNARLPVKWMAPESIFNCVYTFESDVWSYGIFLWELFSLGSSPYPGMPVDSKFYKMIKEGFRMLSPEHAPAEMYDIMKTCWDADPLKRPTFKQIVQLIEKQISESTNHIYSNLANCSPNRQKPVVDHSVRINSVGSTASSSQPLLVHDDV

Consider `Cc1ccc(-c2noc([C@H]3C[C@@H]3F)n2)cc1NC(=O)c1cnc2ccc(Cl)nn12` [Compound I-289], for which the IC50 on wtKIT [1] lay in the range of 50 to 500 nM. Further, in “Kinetic solubility assay”, the “Solubility (μM)” value was “*** (a solubility greater than 2 μM and less than or equal to 10 μM)”.
`Cc1ccc(-c2noc([C@H]3C[C@@H]3F)n2)cc1NC(=O)c1cnc2cc(N3CCC(C)CC3)ccn12` [Compound I-303]: the 50% inhibitory concentration (IC50) at wtKIT [1] was ≤ 50 nM. The “Solubility (μM)” value in the data set “Kinetic solubility assay” is reported as “**** (a solubility less than or equal to 2 μM)”.
For the compound `Cc1ccc(-c2noc([C@@H]3CC(=O)N3)n2)cc1NC(=O)c1cnc2ccccn12` (racemic) [Compound I-224], the IC50 on wtKIT [1] was ≤ 50 nM; at wtKIT [2], 50 to 500 nM. For the same compound, the “Solubility (μM)” value in “Kinetic solubility assay” is recorded as “* (a solubility greater than 50 μM)”.
Regarding `Cc1ccc(-c2noc([C@H]3CCN3S(=O)(=O)c3cccnc3)n2)cc1NC(=O)c1cnc2ccccn12` [Compound I-233], the IC50 on wtKIT [1] and at wtKIT [2] was 50 to 500 nM throughout. The “Solubility (μM)” value in “Kinetic solubility assay” was “** (a solubility greater than 10 μM and less than or equal to 50 μM)”.
For the compound `Cc1ccc(-c2noc(C3(C)CCCC3(F)F)n2)cc1NC(=O)c1cnc2ccccn12` (racemic) [Compound I-374], the half-maximal inhibitory concentration (IC50) on wtKIT [1] is ≤ 50 nM. Also, the “Solubility (μM)” value in “Kinetic solubility assay” is reported as “**** (a solubility less than or equal to 2 μM)”.
For `COc1ccc(Nc2ccn3c(C(=O)Nc4cc(-c5noc([C@H]6C[C@@H]6F)n5)ccc4C)cnc3c2)cc1OC` [Compound I-285] the same measures were ≤ 50 nM and “**** (a solubility less than or equal to 2 μM)”.
`Cc1ccc(-c2noc([C@H]3C[C@@H]3F)n2)cc1NC(=O)c1cnc2ccc(Nc3ccc4c(c3)OCCO4)cn12` [Compound I-290]: at wtKIT [1], the IC50 was ≤ 50 nM. Further, the “Solubility (μM)” value in “Kinetic solubility assay” is “*** (a solubility greater than 2 μM and less than or equal to 10 μM)”.
Regarding `COC(=O)N1CC(c2nc(-c3ccc(C)c(NC(=O)c4cnc5ccc(OCCO)cn45)c3)no2)C1` [Compound I-247], the IC50 at wtKIT [1] is ≤ 50 nM; on wtKIT [2], 50 to 500 nM. Further, in the data set “Kinetic solubility assay”, the “Solubility (μM)” value is “*** (a solubility greater than 2 μM and less than or equal to 10 μM)”.
`Cc1ccc(-c2noc([C@H]3CCN3)n2)cc1NC(=O)c1cnc2cc(C#N)ccn12` [Compound I-244]: the IC50 at wtKIT [1] and at wtKIT [2] was 50 to 500 nM each time. Also, in “Kinetic solubility assay”, the “Solubility (μM)” value is listed as “* (a solubility greater than 50 μM)”.
On to `Cc1cc(C)cc(Nc2ccn3c(C(=O)Nc4cc(-c5noc([C@H]6C[C@@H]6F)n5)ccc4C)cnc3c2)c1` [Compound I-292], for which the IC50 at wtKIT [1] was ≤ 50 nM. The “Solubility (μM)” value in the data set “Kinetic solubility assay” is “*** (a solubility greater than 2 μM and less than or equal to 10 μM)”.
With `Cc1ccc(-c2noc(C3CC3F)n2)cc1NC(=O)c1cnc2ccc(Nc3ccc(OC(F)F)cc3)cn12` (stereo not shown) [Compound I-284], the IC50 at wtKIT [1] is ≤ 50 nM. Besides, the “Solubility (μM)” value in “Kinetic solubility assay” was “*** (a solubility greater than 2 μM and less than or equal to 10 μM)”.
`CC(C)(C)OC(=O)N1CC(c2nc(-c3ccc(Cl)c(NC(=O)c4cnc5ccccn45)c3)no2)C1` [Compound I-333]: the IC50 on wtKIT [1] was ≤ 50 nM. For the same compound, the “Solubility (μM)” value in the data set “Kinetic solubility assay” is “**** (a solubility less than or equal to 2 μM)”.
Turning to `Cc1ccc(-c2noc([C@H]3CC(=O)CN3)n2)cc1NC(=O)c1cnc2ccccn12` [Compound I-223], the figures for the IC50 at wtKIT [1] and on wtKIT [2] were ≤ 50 nM and 50 to 500 nM, respectively.
As for `Cc1ccc(-c2noc(C3C(C)CC3C)n2)cc1NC(=O)c1cnc2ccccn12` (stereo not shown) [Compound I-315], the IC50 on wtKIT [1] was ≤ 50 nM. Also, the “Solubility (μM)” value in “Kinetic solubility assay” is “**** (a solubility less than or equal to 2 μM)”.
For the compound `COc1ccc2ncc(C(=O)Nc3cc(-c4noc(CC(O)C(F)F)n4)ccc3C)n2c1` (single isomer, unassigned) [I-66], the “Solubility (μM)” value in “Kinetic solubility assay” is recorded as “**** (a solubility less than or equal to 2 μM)”.
Same read-out and setting: to `O=C(Nc1cc(-c2noc(C3COC3)n2)ccc1Cl)c1cnc2cc(C(F)F)ccn12` [I-38] belongs “**** (a solubility less than or equal to 2 μM)”; to `Cc1ccc(-c2noc(CC(O)C(F)(F)F)n2)cc1NC(=O)c1cnc2ccccn12` (single isomer, unassigned) [I-67], “**** (a solubility less than or equal to 2 μM)”; to `Cc1ccc(-c2noc(C3COC3)n2)cc1NC(=O)c1cnc2cc(COCCO)ccn12` [I-50], “*** (a solubility greater than 2 μM and less than or equal to 10 μM)”.
In the case of `O=C(Nc1cc(-c2noc(C3CC3(F)F)n2)ccc1Cl)c1cnc2ccccn12` (stereo not shown) [I-74], the “Solubility (μM)” value in “Kinetic solubility assay” is given as “**** (a solubility less than or equal to 2 μM)”.
`Cc1ccc(-c2noc(C3CCC3F)n2)cc1NC(=O)c1cnc2ccccn12` (stereo not shown) [Compound I-400]: the “MDCK-BCRP: Efflux Ratio” value in data set [3] worked out at 1.44. In addition, the “MDCK-BCRP: Papp A-B” value in data set [3] (apical to basolateral) was 11.7 10^−6 cm/s. In the data set “Kinetic solubility assay”, the “Solubility (μM)” value is on record as “**** (a solubility less than or equal to 2 μM)”.
For `Cc1ccc(-c2noc([C@H]3C[C@@H]3F)n2)cc1NC(=O)c1cnc2ccc(S(C)(=O)=O)cn12` [I-18], the “Solubility (μM)” value in “Kinetic solubility assay” was “**** (a solubility less than or equal to 2 μM)”.
Still for that read-out and setting: then `COc1ccn2c(C(=O)Nc3cccc(-c4noc([C@H]5C[C@@H]5F)n4)c3F)cnc2c1` [I-53], with “**** (a solubility less than or equal to 2 μM)”; and `COc1ccc2ncc(C(=O)Nc3cc(-c4noc(CC(O)C(F)F)n4)ccc3C)n2c1` (single isomer, unassigned) [I-65], with “**** (a solubility less than or equal to 2 μM)”.

Broadly, the IC50 is the concentration needed to halve the response being measured.
